Assay results: patent US20250177370A1, “METHOD FOR ALLEVIATING UTERINE LEIOMYOMA USING NICOTINAMIDE” (TAIPEI MEDICAL UNIVERSITY, priority 2023, published 2025)

Assays:
[1] = tested on: alpha-smooth muscle actin (α-SMA); test: Western blotting of α-SMA in ELT-3 cells; assay type: cell-based, rat; details: 72 hours, normalized to GAPDH, vs control group
Description: (§1) First, the ELT-3 cells prepared in section 1 of “General Experimental Materials” were divided into 3 groups, including a control group, and two experimental groups (i.e., experimental groups 1 and 2). Each group of the ELT-3 cells was seeded at a concentration of 2×10^5 cells/well into a 10-cm Petri dish containing 2 mL of DMEM/F12 supplemented with 10% FBS and 1% penicillin-streptomycin, followed by cultivation in an incubator (37° C., 5% CO2) overnight.
(§2) Next, medium change was performed by adding a fresh culture medium supplemented with 1% FBS into the 10-cm Petri dish, followed by cultivation in an incubator (37° C., 5% CO2) for 24 hours. […]
(§3) After cultivation in an incubator (37° C., 5% CO2) for 72 hours, each of the cell cultures was mixed with 100 μL of a RIPA lysis buffer (BIOMAN, Cat. no. 20121701) containing protease inhibitor cocktail (Roche, Cat. no. 4693159001). […] The protein concentration in the total protein sample was determined using bicinchoninic acid (BCA) assay kit (T-Pro Biotechnology, Cat. no. JB04-D001) in accordance with the manufacturer's instructions. […]
(§4) Subsequently, ImageJ software was used for semi-quantitatively calculating the corresponding protein expression level. […]
(§5) The relative expression level was calculated using the following Equation (1): […]
(§6) The data thus obtained were analyzed according to the procedures as described in section 1 of “General Procedures”.

[2] = tested on: collagen type I alpha 1 chain (COL1A1); test: Western blotting of COL1A1 in ELT-3 cells; assay type: cell-based, rat; details: 72 hours, normalized to GAPDH, vs control group
Description: as §1, §2, §3, §4, §5, §6

primary melanocytes = primary melanocytes with ultraviolet (UV) radiation-induced DNA damage; Thompson B. C. et al. (2014); cited from earlier work
[3] = tested on: Eker rat uterine leiomyoma cell line ELT-3; test: Crystal violet staining assay (area density, viable cells); assay type: cell-based; details: ELT-3 cells, 48 hours, vs control group, p<0.001
Description: (§7) Eker rat uterine leiomyoma cell line ELT-3 was purchased from the American Type Culture Collection (ATCC, Manassas, Va., USA). The ELT-3 cells were grown in a 6 cm Petri dish containing Dulbecco's Modified Eagle's Medium (DMEM)/F12 [1:1 (v/v)] (Cassion, Cat. no. DFP29) supplemented with 10% fetal bovine serum (FBS, Corning Inc., Cat. no. 35-010-CV) and 1% antibiotic-antimycotic (Corning Inc., Cat. no. 30-004-CI). The ELT-3 cells were cultivated in an incubator at 37° C. with 5% CO2. Medium change was performed every two to three days. Cell passage was performed when the cultured cells reached 80% to 90% of confluence.
First, the ELT-3 cells prepared in section 1 of “General Experimental Materials” were divided into 3 groups, including a control group, and two experimental groups (i.e., experimental groups 1 and 2). Each group of the ELT-3 cells was seeded at a concentration of 1×10^5 cells/well into a respective well of 6-well culture plates containing 2 mL of DMEM/F12 supplemented with 10% FBS and 1% penicillin-streptomycin, followed by cultivation in an incubator (37° C., 5% CO2) for 24 hours.
(§8) Next, medium change was performed by adding a fresh culture medium supplemented with 1% FBS into the 6-well culture plate. […]
as §6

fibronectin = test: Western blotting of ECM protein fibronectin in ELT-3 cells; assay type: cell-based, rat; details: 72 hours, normalized to GAPDH, vs control group
Description: as §1, §2, §3, §4, §5, §6

[4] = tested on: Eker rat uterine leiomyoma cell line ELT-3; test: Colony formation assay; assay type: cell-based; details: ELT-3 cells, 3 days treatment then 7 to 10 days, vs control group, p<0.05
Description: as §7
First, the ELT-3 cells prepared in section 1 of “General Experimental Materials” were divided into 3 groups, including a control group, and two experimental groups (i.e., experimental groups 1 and 2). Each group of the ELT-3 cells was seeded at a concentration of 5×10^2 cells/well into a respective well of 6-well culture plates containing 2 mL of DMEM/F12 supplemented with 10% FBS and 1% penicillin-streptomycin, followed by cultivation in an incubator (37° C., 5% CO2) for 24 hours.
as §8, §6

[5] = 20 mM nicotinamide (experimental group 1)
[6] = 50 mM nicotinamide (experimental group 2)

SMILES: NC(=O)c1cccnc1 [nicotinamide]
- relative expression level of α-SMA ([1]; 20 mM nicotinamide): significantly decreased
- relative expression level of α-SMA ([1]; 50 mM nicotinamide): significantly decreased
- relative expression level of COL1A1 ([2]; 20 mM nicotinamide): significantly decreased
- relative expression level of COL1A1 ([2]; 50 mM nicotinamide): significantly decreased
- DNA repair (primary melanocytes): enhances DNA repair
- area density [3, 5]: significant decrease
- area density [3, 6]: significant decrease
- relative expression level of fibronectin (fibronectin; 20 mM nicotinamide): significantly decreased
- relative expression level of fibronectin (fibronectin; 50 mM nicotinamide): significantly decreased
- colony density [4, 5]: significant decrease
- colony density [4, 6]: significant decrease
